Like-named read-outs stand apart in the source and are kept apart here.
How the values were obtained:
P. falciparum 3D7-luc = assay: Parasite growth inhibition, luciferase-expressing strain 3D7-luc; format: cell-based, Plasmodium falciparum; details: for IC50: read-out: IC50s for 3D7 growth
rat PRMT1 (rPRMT1) = details: cited from earlier work
[1] = biological target: T1, recombinant PfPRMT1 (MBP-PfPRMT1) (Plasmodium falciparum, UniProt Q8ILK1); assay: Inhibition of recombinant PfPRMT1 methylation activity; format: biochemical; details: chaetocin: in the lower micromolar concentration
T1 sequence (Q8ILK1 1-401): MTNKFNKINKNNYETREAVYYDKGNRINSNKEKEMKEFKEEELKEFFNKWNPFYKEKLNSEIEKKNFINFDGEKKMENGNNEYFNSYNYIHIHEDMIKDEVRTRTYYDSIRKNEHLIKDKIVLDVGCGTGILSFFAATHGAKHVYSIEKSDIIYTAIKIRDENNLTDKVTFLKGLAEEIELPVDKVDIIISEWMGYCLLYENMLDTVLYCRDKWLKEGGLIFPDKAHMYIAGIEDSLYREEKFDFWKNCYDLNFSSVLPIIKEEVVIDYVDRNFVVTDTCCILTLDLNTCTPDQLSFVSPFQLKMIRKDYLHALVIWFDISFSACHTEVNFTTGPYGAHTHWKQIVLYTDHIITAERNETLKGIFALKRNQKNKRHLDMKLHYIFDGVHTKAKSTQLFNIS

[2] = late ring-stage parasites, 48 h, 37°C, 2% parasitemia, 2% hematocrit
[3] = Plasmodium falciparum, 3D7, 48 h

Structure (SMILES): CSC[C@H]1O[C@@H](n2cnc3c(N)ncnc32)[C@H](O)[C@@H]1O [5-Deoxy-5-methylthioadenosine (MTA), 5-Deoxy-5-methylthioadenosine]
- IC50 (P. falciparum 3D7-luc; [2]): > 100 µM

Structure (SMILES): C[S+](CC[C@H](N)C(=O)[O-])C[C@H]1O[C@@H](n2cnc3c(N)ncnc32)[C@H](O)[C@@H]1O (stereo partly drawn) [AdoMet, S-adenosylmethionine]
- Km (rat PRMT1 (rPRMT1); read-out: Km, rPRMT1, ref [31]): 2.52 ± 0.54 µM
- kcat, rPRMT1 (rat PRMT1 (rPRMT1); ref [31]): 0.014 ± 0.0005 s⁻¹

Structure (SMILES): CN1C(=O)[C@@]23C[C@]4([C@]56C[C@@]78SS[C@@](CO)(C(=O)N7[C@H]5Nc5ccccc56)N(C)C8=O)c5ccccc5N[C@@H]4N2C(=O)[C@]1(CO)SS3 [Chaetocin]
- IC50 (P. falciparum 3D7-luc; [3]): 14 ± 1.56 µM
- Inhibition of PfPRMT1 (in words) [1]: no obvious inhibition

Structure (SMILES): O=C1OC2(c3ccccc31)c1cc(Br)c(O)c(Br)c1Oc1c2cc(Br)c(O)c1Br [Eosin Y (AMI-5), Eosin Y]
- IC50 (P. falciparum 3D7-luc; [3]): 14.8 ± 1.01 µM
- Inhibition of PfPRMT1 (in words) [1]: strong inhibitory activity

Structure (SMILES): Nc1ncnc2c1ncn2[C@@H]1O[C@H](C[C@@H](N)CC[C@H](N)C(=O)O)[C@@H](O)[C@H]1O [Sinefungin]
- IC50 (P. falciparum 3D7-luc; [3]): 2.71 ± 0.04 µM
- IC50s for 3D7 growth (P. falciparum 3D7-luc; [2]): lower micromolar

Source: PMC8815339 (The Biochemical journal, 2009)
